The values below come from patent US9493537B2, “Compounds with reduced ring size for use in diagnosing and treating melanoma, including metastatic melanoma and methods related to same” (STC.UNM, priority 2009, dated 2016).

Series [1] addresses T1, MC1 receptor (Mus musculus, UniProt Q01727). In words: In vitro competitive binding assay with ^125I-Tyr^2-NDP-MSH in B16/F1 melanoma cells. Further details: host or cells: B16/F1 murine melanoma cells; species or system murine. Here is the method: B16/F1 cells were harvested and seeded into a 24-well cell culture plate (5×10^5 cells/well) and incubated at 37° C. overnight. […] The reaction medium was aspirated after the incubation. The cells were rinsed twice with 0.5 mL of ice-cold pH 7.4, 0.2% BSA/0.01 M phosphate buffered saline (PBS) and lysed in 0.5 mL of 1 N NaOH for 5 minutes. The activities associated with cells were measured in a Wallac 1480 automated gamma counter (PerkinElmer, N.J.). The IC50 value of the peptide was calculated using Prism software (GraphPad Software, La Jolla, Calif.).
B16/F1 cells in 24-well cell culture plates (5×10^5 cells/well) were incubated at room temperature (25° C.) for 2 h with approximately 60,000 cpm of ^125I-Tyr^2-NDP-MSH in the presence of 10^−12 to 10^−5 M of each peptide in 0.3 mL of binding medium {Dulbecco's Modified Eagle's Medium with 25 mM N-(2-hydroxyethyl)-piperazine-N′-(2-ethanesulfonic acid), pH 7.4, 0.2% bovine serum albumin (BSA), 0.3 mM 1,10-phenathroline}. The medium was aspirated after the incubation. […] The activities associated with cells were measured in a Wallac 1480 automated gamma counter (PerkinElmer, Waltham, Mass.). The IC50 value of each peptide was calculated using Prism software (GraphPad Software, La Jolla, Calif.).

Series [2] in a line: In vitro serum stability in mouse serum. As to conditions: 37° C., 24 h. Type of series: in vitro ADME. Here is the method: After the incubation, 10 μL of 0.5% EDTA aqueous solution was added into the reaction vial to scavenge potential unbound ^111In^3+ ions. The radiolabeled peptide was purified to single species by Waters RP-HPLC (Milford, Mass.) on a Grace Vydac C-18 reverse phase analytical column (Deerfield, Ill.) using a 20-minute gradient of 18-28% acetonitrile in 20 mM HCl aqueous solution with a flow rate of 1.0 mL/min. Purified peptide sample was purged with N2 gas for 20 minutes to remove the acetonitrile. The pH of final solution was adjusted to 7.4 with 0.1 N NaOH and sterile normal saline for animal studies.
Briefly, 50 μL of ^111InCl3 (37-74 MBq in 0.05 M HCl aqueous solution), 10 μL of 1 mg/mL peptide aqueous solution and 400 μL of 0.5 M NH4OAc (pH 4.5) were added into a reaction vial and incubated at 75° C. for 45 mins. After the incubation, 10 μL of 0.5% EDTA (ethylenediaminetetraacetic acid) aqueous solution was added into the reaction vial to scavenge potential unbound ^111In^3+ ions. The radiolabeled complexes were purified to single species by Waters RP-HPLC (Milford, Mass.) on a Grace Vydac C-18 reverse phase analytical column (Deerfield, Ill.) using the following gradient at a 1 mL/min flowrate. The mobile phase consisted of solvent A (20 mM HCl aqueous solution) and solvent B (100% CH3CN). The gradient was initiated and kept at 82:18 A/B for 3 mins followed by a linear gradient of 82:18 A/B to 72:28 A/B over 20 mins. Then, the gradient was changed from 72:28 A/B to 10:90 A/B over 3 mins followed by an additional 5 mins at 10:90 A/B. Thereafter, the gradient was changed from 10:90 AB to 82:18 AB over 3 mins. Each purified peptide sample was purged with N2 gas for 20 mins to remove the acetonitrile. The pH of the final solution was adjusted to 7.4 with 0.1 N NaOH and sterile saline for animal studies. In vitro serum stability of ^111In-DOTA-GGNle-CycMSHhex and ^111In-DOTA-GENle-CycMSHhex were determined by incubation in mouse serum at 37° C. for 24 h and monitored for degradation by RP-HPLC.

Series [3] has as its system B16/F1 melanoma. As to the kind of experiment: Biodistribution in B16/F1 melanoma-bearing C57 mice. Type of series: in vivo. As to conditions: for tumor uptake blocked by NDP-MSH co-injection: 10 μg (6.07 nmol) NDP-MSH. As for the experimental part: (§1) All the animal studies were conducted in compliance with Institutional Animal Care and Use Committee approval. The mice were housed five animals per cage in sterile micro-isolator cages in a temperature- and humidity-controlled room with a 12-h light/12-h dark schedule. […] C57 mice were subcutaneously inoculated on the right flank with 1×10^6 B16/F1 cells. The weight of tumors reached approximately 0.2 g 10 days post cell inoculation. […] Groups of 5 mice were sacrificed at 0.5, 2, 4 and 24 h post-injection, and tumors and organs of interest were harvested, weighed and counted. Blood values were taken as 6.5% of the whole-body weight. […] The mice were sacrificed at 2 h post-injection. The tumor and organs of interest were harvested, weighed and counted.
(§2) All animal studies were conducted in compliance with Institutional Animal Care and Use Committee approval. The pharmacokinetics of ^111In-DOTA-GGNle-CycMSHhex and ^111In-DOTA-GENle-CycMSHhex were determined in B16/F1 melanoma-bearing C57 female mice (Harlan, Indianapolis, Ind.). The C57 mice were subcutaneously inoculated with 1×10^6 B16/F1 cells on the right flank for each mouse to generate B16/F1 melanomas. Ten days post inoculation, the tumor weights reached approximately 0.2 g. Each melanoma-bearing mouse was injected with 0.037 MBq of ^111In-DOTA-GGNle-CycMSHhex or ^111In-DOTA-GENle-CycMSHhex via the tail vein. Groups of 5 mice were sacrificed at 0.5, 2, 4 and 24 h post-injection, and tumors and organs of interest were harvested, weighed and counted. Blood values were taken as 6.5% of the whole-body weight. The specificities of the tumor uptake of ^111In-DOTA-GGNle-CycMSHhex and ^111In-DOTA-GENle-CycMSHhex were determined by co-injecting 10 μg (6.07 nmol) of unlabeled NDP-MSH which is a linear α-MSH peptide analogue with picomolar MC1 receptor binding affinity.

Series [4] in a line: Metabolites in urine and melanoma by RP-HPLC. Type of series: in vivo, C57 mice. The conditions noted are these: 2 h post-injection. As for the experimental part: The mouse used for the imaging study (2 h post-injection) described above was euthanized and the urine was collected for identifying the metabolites. The urinary sample was centrifuged at 16,000 g for 5 min prior to the HPLC analysis. The radioactive metabolite in the urine was analyzed by injecting aliquots of urine into the HPLC. A 20-minute gradient of 18-28% acetonitrile/20 mM HCl was used for the urine analysis.
Both melanoma and urine were collected from the mouse used for SPECT/CT imaging to analyze the metabolites of ^111In-DOTA-GGNle-CycMSHhex in melanoma and urine. The tumor was homogenized by a VWR homogenizer for 5 mins. Equal volume of ethanol was added into the tumor sample. The tumor sample was vortexed and then centrifuged at 16,000 g for 5 mins. The supernatant was transferred into a glass test tube and purged with N2 gas for 20 mins to remove the ethanol. Aliquots of the supernatant were injected into HPLC. The urinary sample was directly centrifuged at 16,000 g for 5 mins prior to the HPLC analysis. Thereafter, aliquots of the urine were injected into HPLC. The HPLC gradient described above was used for the analyses of metabolites.

Series [5] can be described thus: Biodistribution in B16/F1 melanoma-bearing C57 mice. Format: in vivo. As to conditions: female, C57, mouse, iv, 0.037 MBq, total radioactivity; for tissue to tissue ratio at 4 h: 4 h post-injection. As for the experimental part:
as §1, §2

The target in series [6] is MC1 receptor (Homo sapiens, UniProt Q01726). The conditions noted are these: references 25, 26; cited from earlier work.
For series [7], the target named is T1, MC1 receptor. The conditions noted are these: cited from earlier work.
Series [8] has as its system B16/F1 melanoma. The conditions noted are these: mouse, in vivo; cited from earlier work.
In series [9] the test system is B16/F1 melanoma. The conditions noted are these: references 19, 20; cited from earlier work.

Positions of bridges follow the written chain, without caps; N, C: chain ends. Non-standard residues stand in square brackets, D forms with d. Residues, ends and D or L forms follow the SMILES beside them. No end group written: not given here. *: point of attachment. DOTA = O=C(O)CN1CCN(CC(=O)O)CCN(CC(=O)*)CCN(CC(=O)O)CC1; Nle = CCCC[C@H](N)C(=O)O

T1 sequence (Q01727 whole entry): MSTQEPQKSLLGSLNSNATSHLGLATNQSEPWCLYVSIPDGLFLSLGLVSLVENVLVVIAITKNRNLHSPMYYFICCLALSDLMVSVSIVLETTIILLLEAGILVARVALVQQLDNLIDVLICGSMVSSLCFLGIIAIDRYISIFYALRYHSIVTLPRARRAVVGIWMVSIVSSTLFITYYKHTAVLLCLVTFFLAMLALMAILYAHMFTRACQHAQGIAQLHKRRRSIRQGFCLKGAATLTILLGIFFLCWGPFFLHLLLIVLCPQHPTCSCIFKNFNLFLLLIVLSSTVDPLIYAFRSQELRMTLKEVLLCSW
Chain of MC1 receptor (Homo sapiens, UniProt Q01726) (Q01726 whole entry): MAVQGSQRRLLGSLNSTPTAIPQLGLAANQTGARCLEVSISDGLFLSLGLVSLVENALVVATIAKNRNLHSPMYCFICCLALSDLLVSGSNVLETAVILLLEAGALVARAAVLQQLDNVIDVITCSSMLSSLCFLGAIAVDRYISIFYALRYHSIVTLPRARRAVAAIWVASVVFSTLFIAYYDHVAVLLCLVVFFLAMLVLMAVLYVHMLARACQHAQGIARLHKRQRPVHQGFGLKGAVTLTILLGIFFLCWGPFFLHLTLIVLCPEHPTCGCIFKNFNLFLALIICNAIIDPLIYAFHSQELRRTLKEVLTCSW

For `CCCC[C@H](NC(=O)CN1CCN(CC(=O)O)CCN(CC(=O)O)CCN(CC(=O)O)CC1)C(=O)NCC(=O)N[C@@H](CCC(=O)O)C(=O)N[C@H]1CC(=O)NCCCC[C@@H](C(N)=O)NC(=O)[C@H](Cc2c[nH]c3ccccc23)NC(=O)[C@H](CCCNC(=N)N)NC(=O)[C@@H](Cc2ccccc2)NC(=O)[C@H](Cc2c[nH]cn2)NC1=O` [DOTA-NleGE-CycMSHhex] ({DOTA}-[Nle]GEDH[dF]RWK-NH2; lactam 4-9), the “lower receptor binding affinity than DOTA-GGNle-CycMSHhex and DOTA-GENle-CycMSHhex” value at MC1 receptor [1] was “at least 78 fold”.
Regarding `CCCC[C@H](NC(=O)[C@H](CCC(=O)O)NC(=O)CNC(=O)CN1CCN(CC(=O)O)CCN(CC(=O)O)CCN(CC(=O)O)CC1)C(=O)N[C@H]1CC(=O)NCCCC[C@@H](C(N)=O)NC(=O)[C@H](Cc2c[nH]c3ccccc23)NC(=O)[C@H](CCCNC(=N)N)NC(=O)[C@@H](Cc2ccccc2)NC(=O)[C@H](Cc2c[nH]cn2)NC1=O` [^111In-DOTA-GENle-CycMSHhex, metal not drawn] ({DOTA}-GE[Nle]DH[dF]RWK-NH2; lactam 4-9), in [2], the “serum stability by RP-HPLC” value is recorded as “stable”. Further, the “tumor uptake blocked by NDP-MSH co-injection” value in the series with B16/F1 melanoma [3] (2 h post-injection) is on record as 95.6%. In addition, the figures for the Kidneys uptake in the series with B16/F1 melanoma [3] (0.5 h post-injection) and with B16/F1 melanoma [3] (2 h post-injection) were 9.06±2.20 % ID/g and 5.54±0.63 % ID/g, respectively. The Tumor/Skin uptake ratio in the series on B16/F1 melanoma [3] (0.5 h post-injection) is 7.21; with B16/F1 melanoma [3] (2 h post-injection) it was 24.30; in the series with B16/F1 melanoma [3] (4 h post-injection) it was 44.17; in the series on B16/F1 melanoma [3] (24 h post-injection), 27.50.
With `CCCC[C@H](NC(=O)CNC(=O)CNC(=O)CN1CCN(CC(=O)O)CCN(CC(=O)O)CCN(CC(=O)O)CC1)C(=O)N[C@H]1CC(=O)NCCCC[C@@H](C(N)=O)NC(=O)[C@H](Cc2c[nH]c3ccccc23)NC(=O)[C@H](CCCNC(=N)N)NC(=O)[C@@H](Cc2ccccc2)NC(=O)[C@H](Cc2c[nH]cn2)NC1=O` [^111In-DOTA-GGNle-CycMSHhex, metal not drawn] ({DOTA}-GG[Nle]DH[dF]RWK-NH2; lactam 4-9), the “serum stability by RP-HPLC” value in series [2] is given as “stable”. Moreover, in [4] (tumor), the “melanoma metabolites by HPLC” value is reported as “remained intact”. Further, the “urinary metabolites by HPLC” value in series [4] (urine) is “remained intact”. Besides, the tissue uptake at 2 h in series [5] (liver, 2 h post-injection, read-out: Liver uptake) was under 0.61 %ID/g. Further, the tissue to tissue ratio at 4 h in series [5] (tumor and kidney, tumor/kidney uptake ratio, times that of ^111In-DOTA-Nle-CycMSHhex) turned out to be 1.61. Also, in series [5] (tumor and kidneys, tumor/kidney uptake ratio, times that of ^111In-DOTA-Nle-CycMSHhex, 2 h post-injection), the tissue to tissue ratio at 2 h turned out to be 1.37. In addition, the tissue to tissue ratio at 4 h in [5] (tumor and liver, tumor/liver uptake ratio, times that of ^111In-DOTA-Nle-CycMSHhex) is 3.13. In the series on B16/F1 melanoma [3] (2 h post-injection), the “tumor uptake blocked by NDP-MSH co-injection” value is on record as “Approximately 98%”, the Kidneys uptake was determined as 6.84±0.92 % ID/g, the Tumor uptake worked out at 19.05±5.04 % ID/g and the Tumor/Skin uptake ratio turned out to be 70.56. The “tumor uptake, times that of ^111In-DOTA-GENle-CycMSHhex” value (shortened to “tumor uptake, times that”) with B16/F1 melanoma [3] (2 h post-injection) worked out at 2.5 times. In addition, in the series on B16/F1 melanoma [3] (0.5 h post-injection), the Kidneys uptake amounted to 15.19±2.75 % ID/g; the Tumor uptake was determined as 18.39±2.22 % ID/g; the Tumor/Skin uptake ratio worked out at 8.51; the “tumor uptake, times that” value came to 2 times. In the series on B16/F1 melanoma [3] (4 h post-injection), the Tumor uptake is on record as 18.6±3.56 % ID/g; the Tumor/Liver uptake ratio is listed as 31.0; the Tumor/Skin uptake ratio stood at 68.89; the “tumor uptake, times that” value is on record as 3 times. In the series with B16/F1 melanoma [3] (24 h post-injection), the Tumor uptake is given as 6.77±0.84 % ID/g and the Tumor/Skin uptake ratio worked out at 26.04.
As for “Ac-Nle-c[Asp-His-DPhe-Arg-Trp-Lys(CONH2)] [MT-II]”, on MC1 receptor [6], the “MC1 receptor binding affinity compared with the native α-MSH peptide” value is on record as “higher” and the “MC1 receptor dissociation rate compared with the native α-MSH peptide” value is given as “slower”.
Regarding [Nle^4, D-Phe^7]-α-MSH [NDP-MSH], the “affinity for the MC1 receptor” value at MC1 receptor [7] was “picomolar”.
As for “{DOTA}-GEK[Nle]EH[dF]RWGRPVD (lactam 3-14) [^111In-DOTA-GlyGlu-CycMSH, reference compound]”, the “tumor radioactivity at 2 h remaining in tumors at 24 h” value in the series on B16/F1 melanoma [8] is 22.8%. Also, the “visualization of flank primary and pulmonary metastatic melanoma lesions by SPECT/CT” value in the series with B16/F1 melanoma [9] is on record as “clearly visualized”.
